In patent publication US9239334B2, “Fatty acid C16: 1N7-palmitoleate a lipokine and biomarker for metabolic status” (PRESIDENT AND FELLOWS OF HARVARD COLLEGE, priority 2008, dated 2016):

Assays:
[1] = test system: SCD-1, FAS and ELOVL6 expression in liver; test: Liver lipogenic gene expression after 6-hour lipid infusion; format: in vivo; conditions: 6-hour infusion, compared to vehicle-infused mice
From the text: FIG. 5A-5E reflects the regulation of SCD-1 promoter activity in vivo. […] PUF: polyunsaturated fatty acid response element. FIG. 5B is the regulation of WT and mutant SCD-1 promoter activities by fatty acids. AA: arachidonic acid. FIG. 5C is the regulation of wild-type and mutant SCD-1 promoter activities by plasma lipids. Plasma lipids extracted from WT or FABP^−/− (DK) mice were used to treat FAO cells Infected with WT or mutant SCD-1 promoter-carrying adenoviruses and luciferase assays performed as described in the Examples. FIG. 5D presents the in vivo regulation of wild-type and mutant SCD-1 promoter activities. Luciferase assays were performed on liver tissues of WT or DK mice injected with WT or mutant SCD-1 reporter carrying adenoviruses. FIG. 5E is liver gene expression in mice infused with vehicle, TG:palmitate or TG:palmitoleate. *, p<0.05. […] INTRALIPID® fatty acid lipid infusion solution with 2 mM triglycerides:palmitate or palmitoleate were prepared using a previously described protocol with modifications (Stein et al., 1997). Briefly, lipids were dissolved in a solvent containing 5% glycerol and 0.72% phosphocholine in 0.9% saline, heated at 80° C. for 10 min, and then sonicated 1 min four times. For TG:palmitoleate, the heating was omitted to avoid oxidization of the lipids. Lipids stay in suspension for a week, so to prevent clogging the preparations must be vortexed well before loading the syringe and tubing. Seven days before lipid infusion, mice were anesthetized and an indwelling catheter inserted in the left internal jugular vein, then the animals were left to recover the following days. After overnight fasting, lipids were infused at a rate of 500 μl/kg/min for six hours. At the end of the infusion, insulin (1 U/Kg) was injected into mice via the infusion tubing and tissues were collected for subsequent gene expression and immunoblotting analyses. To determine serum FFA level during lipid infusion, blood was collected from mouse tails at different time intervals and spun down to collect plasma. Serum FFAs were determined using a commercial kit (Wako Chem.). TG:palmitate and TG:palmitoleate are difficult to dissolve at a concentration that are compatible with the infusion rate of hyperinsulinemic-euglycemic clamp study and yet maintain efficient delivery of these lipids. Therefore fatty acid: palmitoleate was used to infuse mice for clamp study. Palmitoleate was dissolved in saline containing 2% BSA (vehicle) at 15 mM with repeated sonications and was infused through the tubing at a rate of 3.3 μl/min for two hours. A standard hyperinsulinemic-euglycernic clamp was then performed as previously described (Furuhashi et al., 2007). Vehicle or palmitoleate solution was used to dissolve tracer ^3H-glucose and so lipid was also infused at 3.3 μl/min throughout the 4-hour period of clamp study.

[2] = test system: insulin receptor, IRS-1, IRS-2 and AKT phosphorylation in liver; test: Insulin signaling in liver of lipid-infused mice (immunoblotting); format: in vivo; conditions: TG lipid infusion, compared to vehicle controls
From the text: (§1) FIGS. 7A-7G show data on the regulation of insulin signaling and glucose metabolism by palmitoleate. FIG. 7A is the basal and insulin-stimulated phosphorylation of insulin receptor (IR), insulin receptor substrate-1 (IRS-1) and -2 (IRS-2) and AKT in liver of mice infused with vehicle (Veh), TG:palmitoleate (C16:1n7) or TG:palmitate (C16). Representative blots are shown and quantifications on the right are averaged results of three mice in each treatment group. […] Representative blots are shown and quantifications on the right are averaged results of three mice in each treatment group.
(§2) The left panel presents the insulin-stimulated phosphorylation of insulin receptor and AKT in liver of mice infused with vehicle or palmitoleate. […] Mice were infused with vehicle or palmitoleate at 3.3 μl/min for six hrs, and insulin (1 U/Kg) was injected through the infusing tubing. Three minutes after insulin injection, tissues were collected and immunoblotting analyses were performed.
(§3) The present invention also provides for the regulation of insulin action by increased circulating palmitoleate. To study whether palmitoleate regulates systemic metabolic responses, lipid infusions were administered in conscious mice. Lipid infusion has been used widely to investigate the relationship between plasma FFAs and insulin resistance, but almost all studies using this protocol utilized preparations of natural lipid products containing a variety of fatty acids. Kim et al., 114 J. Clin. Invest. 823-27 (2004); Kim et al., 277 J. Biol. Chem. 32915-22 (2002); Yu et al., 277 J. Biol. Chem. 50230-36 (2002). […]
(§4) Samples of 200 μl serum were collected using heparin-coated glass tubes and spun at 13,000 g in a microcentrifuge to separate the plasma. […] Tissue protein lysates was separated with SDS-PAGE gels and phosphorylated or total proteins were detected with the following antibodies: phospho AKT Serine 473, AKT, insulin receptor, phospho-tyrosine (Santa Cruz Biotech.); IRS-1 and IRS-2 (Upstate); phospho-GSK and GSK (Cell Signaling Tech.); phospho-insulin receptor from (Calbiocbem). […]

aP2 = biological target: T1, aP2 (Mus musculus, UniProt P04117); test: Lipogenic gene expression in adipose tissue of mice treated with aP2 inhibitor; format: in vivo; conditions: WT mice on HFD, oral gavage 40 mg/kg/day for two months
T1 construct: from tissue; host or cells: epididymal fat pads of mice on high-fat diet (in vivo oral dosing)
T1 sequence (P04117 1-132): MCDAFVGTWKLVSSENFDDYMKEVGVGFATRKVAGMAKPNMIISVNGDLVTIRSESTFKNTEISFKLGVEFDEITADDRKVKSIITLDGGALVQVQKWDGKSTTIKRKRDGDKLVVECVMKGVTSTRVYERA
Experimental: FIGS. 6A-6D present data related to the regulation of lipogenic genes in adipose and liver of WT and FABP^−/− mice. […] Gene expression patterns in epididymal fat pad were determined by quantitative real-time PCR. FIG. 6B is regulation of lipogenic gene promoter activities by FABPs in differentiated adipocytes. […] Gene expressions in epididymal fat pads from mice treated with vehicle or aP2 inhibitor were determined with quantitative real-time PCR. […] relates to the differential regulation of lipogenic gene expression in adipose and liver tissues. Levels of the mRNAs in liver and epididymal fat pad from mice fed with high-fat diet were determined with quantitative real-time PCR. ACC1, acetyl-CoA carboxylase1; FAS, fatty acid synthase; SCD-1, stearoyl-CoA desaturase; ELOVL6, fatty acid elongase 6; DGAT1, acyl-CoA:diacylglycerol acyltransferase 1. *, p<0.05.
To directly address this, adipogenic cell lines from FABP−/−mice were differentiated them into adipocytes (FIG. 19). […] This observation agrees with that observed in adipose tissue of FABP-deficient mice. This pattern was tested in vivo in an alternative experimental system where aP2 function in mice is blocked through an orally administrated synthetic inhibitor. […] Furuhashi et al., 2007. […]

SCD-1 promoter = test: SCD-1 promoter-driven luciferase reporter in FAO hepatoma cells; format: cell-based, murine; conditions: hepatocytes (FAO) treated with a single fatty acid, 300 μM
Experimental: This possibility was tested using several highly sensitive assays to probe the functional profile and activities of plasma lipids. SCD-1 was chosen as a target because it was determined previously that the suppression of hepatic SCD-1 activity is a major alteration in FABP-deficient mice under diet-induced or genetic obesity. Cao et al., 2006; Maeda et al., 2005. Hepatic SCD-1 expression is regulated by a variety of hormones and nutritional factors such as insulin, glucose, and polyunsaturated fatty acids (PUFAs). Ntambi & Miyazaki, 43 Prog. Lipid Res. 91-104 (2004). […] Chu et al., 26 Mol. Cell Biol. 6786-98 (2006); Ntambi, 40 J. Lipid Res. 1549-58 (1999). The 1.5 kb murine SCD-1 promoter was placed in front of a luciferase reporter and inserted into an adenovirus construct. FAO rat hepatoma cells infected with this adenovirus verified the responsiveness of this reporter to PUFA, consistent with previous observations (FIG. 15). Because this assay system was adapted to a microplate format, very small amounts of lipids were required for experimentation. This system allowed direct testing for the effects of lipids extracted from plasma of WT and FABP-deficient animals.
Lipids were extracted from whole plasma and applied to liver cells expressing the SCD-1 promoter reporter gene. […] To control for any difference in the amount of lipids extracted from plasma and to mimic the in vivo regulation of SCD-1 expression, mixtures of FFAs were generated with the same molar ratio detected in WT or FABP-deficient plasma lipids using the major fatty acids listed in FIG. 2C. […]
as §4

[3] = test system: insulin receptor signaling in muscle tissue; test: Insulin signaling in muscle of lipid-infused mice (immunoblotting); format: in vivo; conditions: TG lipid infusion
From the text: as §1, §2, §3, §4

| Compound | SCD-1 expression in liver [1] | fatty acid elongase 6 (ELOVL6) expression in liver [1] | fatty acid synthase (FAS) expression in liver [1] | proximal insulin-signaling pathway in liver (insulin receptor, IRS-1, IRS-2, AKT) [2] | insulin receptor signaling in muscle [3] | other results |
| --- | --- | --- | --- | --- | --- | --- |
| CCCCCCCCCCCCCCCC(=O)OCC(COC(=O)CCCCCCCCCCCCCCC)OC(=O)CCCCCCCCCCCCCCC [TG-palmitate, reference compound] | increase | increase | increase | suppressed |  |  |
| CCCCCC/C=C\CCCCCCCC(=O)OCC(COC(=O)CCCCCCC/C=C\CCCCCC)OC(=O)CCCCCCC/C=C\CCCCCC [TG-palmitoleate] | substantial decrease | substantial decrease | substantial decrease | strongly potentiated |  |  |
| CCc1c(-c2ccccc2)c(-c2ccccc2)nn1-c1ccccc1-c1cccc(OCC(=O)O)c1 [aP2 inhibitor] |  |  |  |  |  | lipogenic gene expression in adipose tissues (aP2): increased |
| CCCCC/C=C\C/C=C\C/C=C\C/C=C\CCCC(=O)O [arachidonic acid, reference compound] |  |  |  |  |  | SCD-1 promoter-driven reporter activity (SCD-1 promoter): suppressed |
| CCCCCCCCCCCCCCCC(=O)O [palmitate, reference compound] |  |  |  |  | impaired |  |
| C16:1n7-palmitoleate |  |  |  |  | enhanced |  |
